Laboratory results published in PubChem BioAssay (NCI).
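Grown in 96-well plates, cells were treated for 48 hours with each compound at five concentrations. Insufficient inhibition: endpoint recorded as highest concentration tested. The concentration for full growth arrest is given as TGI.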

Assays:
Experiment in all cases: inhibition of tumour cell growth, NCI panel, 48 h
[1] = system: A549 NSCLC
[2] = system: SW-620 colon
[3] = system: RXF 393 renal
[4] = system: K-562 leukemia
[5] = system: KM12 colon
[6] = system: SR leukemia
[7] = system: MDA-MB-231 breast
[8] = system: IGROV1 ovarian
[9] = system: RPMI-8226 leukemia
[10] = system: SN12C renal
[11] = system: NCI-H460 lung
[12] = system: UACC-62 melanoma

Row | SMILES | TGI [1] [µM] | TGI [2] [µM] | TGI [3] [µM] | TGI [4] [µM] | TGI [5] [µM] | TGI [6] [µM] | TGI [7] [µM] | TGI [8] [µM] | TGI [9] [µM] | TGI [10] [µM] | TGI [11] [µM] | TGI [12] [µM]
1 | Cc1ccc(S(=O)(=O)C2=C(C(C)C)N=NC2(C)C)cc1 | > 100 | > 100 | > 100 | > 100 | > 100 | > 100 | > 100 | > 100 | 53.8 | > 100 | > 100 | 
2 | COc1ccc(/C(Cl)=C(\C#N)c2ccc(OC)c(OC)c2)cc1OC | > 100 | > 100 | > 100 | > 100 |  | > 100 | > 100 | > 100 | 60.4 | > 100 | > 100 | > 100
3 | CN1CCCOC(c2ccc(Cl)cc2)O1 (centres undefined) | > 100 | > 100 | > 100 | > 100 | > 100 | > 100 | > 100 | > 100 |  | > 100 | > 100 | > 100
4 | CC1CC(Nc2ccc(Br)cc2)N(C(=O)c2ccc(Br)cc2)O1 (centres undefined) | > 10 | > 10 | > 10 | > 10 |  | > 10 | > 10 | > 10 | > 10 | > 10 | > 10 | 
5 | Cc1ccc2c(c1)CC1(Cc3cccc(C)c3C1=O)C2=O (centres undefined) | > 100 | > 100 | > 100 | > 100 |  | > 100 | > 100 | > 100 | > 100 | > 100 | > 100 | > 100
6 | COCn1cnc2c(=O)nc(SC)n(-c3ccccc3)c21 | > 100 | > 100 | > 100 | > 100 | > 100 |  | > 100 | > 100 | > 100 | > 100 |  | > 100
7 | O=c1cc(NNc2cccc(Cl)c2)[nH]c(=O)[nH]1 | > 100 | 33 | > 100 | > 100 | > 100 | > 100 | 32.1 | > 100 | 56.1 |  | > 100 | > 100
8 | CCOP(=O)(OCC)/C(C#N)=C/c1ccc(-c2cc(C(F)(F)F)cc(C(F)(F)F)c2)o1 | 31.3 | 28.2 |  | 13.8 |  | 26.8 | 26.8 |  | 23.5 | 29.1 | 19.1 | 
9 | CCOC(=O)c1c(OCC)[nH]c(=O)c(C(c2cccs2)c2c(O)c(C(=O)OCC)c(OCC)[nH]c2=O)c1O | 32.8 | 34.1 | 19 |  | 42.9 |  | 30.1 | 28.6 | > 100 | 34.6 | 39.8 | 28.6
10 | O=C(Cn1c2ccc(Br)cc2c2nc3ccccc3nc21)NNC(=S)NC1CCCCC1 | 22.4 | 29.2 | 23.4 | 34.2 | 48.2 |  | 31.6 | 23.6 | 26.8 | 35.6 | 24.9 | 43.2
